The test system of assay [1] is Wistar fatty rats. The experiment in a line: Hypoglycemic and hypolipidemic actions in rats. The class given is in vivo. The following applies: 1 mg/kg/day orally for seven days, percentage reduction compared with non-treatment group. On the procedure:
Crystals of the test compound were suspended in an amount of 1 mg/5 ml in a 0.5% methyl cellulose solution and compulsorily administered orally at the dose of 1 mg/kg/day to Wistar fatty rats (27-30 weeks old; five rats in a group), a model of obesity and type 2 diabetes mellitus, for seven days successively. During that period, diet and water were given freely. Blood was sampled from tail vein and measurement of the components was carried out using serum. Glucose was quantified using L-type Wako Glu2 (Wako Pure Chemicals) while triglyceride was quantified using L-type Wako TG.H (Wako Pure Chemical). The value of treatment group is represented as percentage reduction compared with the non-treatmet group.

Assay [2] concerns KKA^γ mice. As to the kind of experiment: Hypoglycemic and hypolipidemic actions in mice. Type of assay: in vivo. The following applies: 0.01% in powdery diet for four days, percentage reduction compared with non-treatment group. On the procedure:
Crystals of the test compound were mixed in a powdery diet (CE-2; Japan Clea) at a concentration of 0.01%, and freely given to KKA^γ mice (11 weeks old; five mice in a group), a model of obesity and type 2 diabetes mellitus, for four days. During that period, water was given freely. Blood was sampled from orbital venous plexus and measurement of the components was carried out using serum. Glucose was quantified using L-type Wako Glu2 (Wako Pure Chemicals) while triglyceride was quantified using Iatro-MA701 TG kit (Iatron Laboratories Inc.). The value of treatment group is represented as percentage reduction compared with the non-treatmet group.

Consider two compounds from patent US6777435B1, “Crystals of an oxyiminoalkanoic acid derivative and their use as antidiabetics” (Takeda Chemical Industries, Ltd., priority 1999, dated 2004).

Take `Cc1oc(-c2ccccc2)nc1COc1ccc(CO/N=C(\CCC(=O)O)c2ccccc2)cc1` [Crystals of Example 1, (E)-4-[4-(5-methyl-2-phenyl-4-oxazolylmethoxy)benzyloxyimino]-4-phenylbutyric acid]: the “Hypoglycemic Action (%)” value in assay [1] (serum glucose) was determined as 60%. Further, the “Hypolipemic Action (%)” value in assay [1] (serum triglyceride) is listed as 85%.

As to `Cc1oc(-c2ccccc2)nc1COc1ccc(CO/N=C(\CCC(=O)O)c2ccccc2)cc1` [Crystals of Reference Example 4, (E)-4-[4-(5-methyl-2-phenyl-4-oxazolylmethoxy)benzyloxyimino]-4-phenylbutyric acid], the “Hypoglycemic Action (%)” value in assay [2] (serum glucose) is reported as 42%. In addition, in assay [2] (serum triglyceride), the “Hypolipemic Action (%)” value turned out to be 61%.
